Data from patent US9937235B2, “Lipidated peptides as anti-obesity agents” (USTAV ORGANICKE CHEMIE A BIOCHEMIE AKADEMIE VED CR, V.V.I, priority 2012, dated 2018).
Where a SMILES comes first, the peptide text is derived from it. Where no end group is shown, it is not given here. [ ]: non-standard residue; d: D form. The star is where a group is joined. Phe(F5) = N[C@@H](Cc1c(F)c(F)c(F)c(F)c1F)C(=O)O; Palmitoyl = CCCCCCCCCCCCCCCC(=O)*; Myristoyl = CCCCCCCCCCCCCC(=O)*; Lauroyl = CCCCCCCCCCCC(=O)*; Decanoyl = CCCCCCCCCC(=O)*; Nle = CCCC[C@H](N)C(=O)O; Dap = NC[C@H](N)C(=O)O

T1: human PrRP receptor, GPR10 (Homo sapiens, UniProt P49683)
T1 construct: host or cells: CHO cells
T1 sequence (P49683 1-370): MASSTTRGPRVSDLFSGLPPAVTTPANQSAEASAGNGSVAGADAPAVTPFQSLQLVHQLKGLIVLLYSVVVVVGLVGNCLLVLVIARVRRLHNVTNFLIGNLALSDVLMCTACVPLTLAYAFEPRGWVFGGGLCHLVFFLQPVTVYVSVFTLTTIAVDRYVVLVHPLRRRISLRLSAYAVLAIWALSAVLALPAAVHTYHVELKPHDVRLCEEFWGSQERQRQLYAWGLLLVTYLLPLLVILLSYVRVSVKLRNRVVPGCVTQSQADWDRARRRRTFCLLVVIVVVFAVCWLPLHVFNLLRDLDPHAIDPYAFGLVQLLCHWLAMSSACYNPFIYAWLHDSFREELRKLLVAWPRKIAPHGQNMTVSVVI

T2: rat PrRP receptor (GPR10) in RC-4B/C cells (Rattus norvegicus, UniProt Q64121)
T2 construct: host or cells: RC-4B/C rat pituitary cell line
T2 sequence (Q64121 1-370): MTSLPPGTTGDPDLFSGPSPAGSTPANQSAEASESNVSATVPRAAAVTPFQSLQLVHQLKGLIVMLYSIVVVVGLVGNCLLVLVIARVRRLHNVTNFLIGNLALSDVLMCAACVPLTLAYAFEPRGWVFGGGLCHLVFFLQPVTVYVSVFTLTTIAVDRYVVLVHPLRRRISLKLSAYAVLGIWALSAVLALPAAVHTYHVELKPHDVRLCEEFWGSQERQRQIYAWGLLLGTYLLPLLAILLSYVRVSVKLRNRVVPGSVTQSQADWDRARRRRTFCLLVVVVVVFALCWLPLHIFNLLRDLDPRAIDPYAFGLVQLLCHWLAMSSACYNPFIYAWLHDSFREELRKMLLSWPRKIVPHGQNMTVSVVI

T3: rat PrRP receptor in RC-4B/C cells (rat, UniProt Q64121 1-370)
T3 construct: whole, on cells; also called the rat receptor; GPR10
T3 sequence (looked up): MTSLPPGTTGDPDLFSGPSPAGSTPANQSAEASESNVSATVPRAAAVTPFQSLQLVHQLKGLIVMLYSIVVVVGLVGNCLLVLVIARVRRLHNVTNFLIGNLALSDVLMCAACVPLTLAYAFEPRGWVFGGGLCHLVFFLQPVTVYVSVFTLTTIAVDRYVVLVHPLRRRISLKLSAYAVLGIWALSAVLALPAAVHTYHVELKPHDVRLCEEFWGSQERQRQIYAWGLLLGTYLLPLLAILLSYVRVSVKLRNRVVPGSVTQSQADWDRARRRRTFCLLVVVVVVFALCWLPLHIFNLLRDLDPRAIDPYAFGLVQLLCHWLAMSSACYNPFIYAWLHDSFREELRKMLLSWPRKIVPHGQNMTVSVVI


Legend:
[1] = target: T1, human PrRP receptor, GPR10; test: Competitive binding to CHO cells with transfected human GPR10; conditions: CHO cells with transfected human GPR10, human ^125I—PrRP31
Procedure: Competitive binding experiments were performed according to Motulsky and Neubig (Motulsky, A., et al., “Analyzing radioligand binding data,” Curr Protoc Neurosci, Chapter 7, Unit 7.5, 2002).
CHO cells with transfected human PrRP receptor, GPR10 (Perkin Elmer, USA) were grown on 24-well plates coated with polyethyleneimine. The cells were grown to the optimal density of 40-80 thousand cells per well. The following agents were used for the experiment: binding buffer (25 mmol·l^−1 Tris, pH 7.4; 118 mmol·l^−1 NaCl, 10 mmol·l^−1 MgCl2, 1 mmol·l^−1 CaCl2, 5.5 mmol·l^−1 glucose, 0.5 mg/ml BSA), unlabelled analogs of PrRP of final concentration within 10^−11 to 10^−4 mol·l^−1, and human ^125I—PrRP31 of final concentration of 5×10^−11 mol·l^−1.
(§1) Plates were incubated for 60 minutes at room temperature. After incubation, the cells were solubilized in 0.1 mol/l solution of NaOH and the radioactivity bound to the cells was counted using a γ-counter. The experiments were performed in duplicate and repeated at least three times.
For evaluation of competitive binding experiments, the program Graph Pad Prism Software (San Diego, Calif., USA) was used. A method of nonlinear regression assuming one-site binding was used.

fasted C57BL/6 mice = test: Food intake in fasted mice after SC administration; assay type: in vivo, mouse; conditions: fasted C57BL/6 mice, 5 mg/kg SC, 45 min
Procedure, shortened: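 Male C57BL/6 mice, food-deprived 17 h, received saline, PrRP or lipidated analogs either SC at 1-10 mg/kg or ICV into the third ventricle at 4 nmol/mouse.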

[2] = target: T2, rat PrRP receptor (GPR10) in RC-4B/C cells; test: Competitive binding to rat pituitary RC-4B/C cells; conditions: rat RC-4B/C cells, Table 5; read-out: C-4B/C cells ^25I-rat PrRP31 Ki
[3] = target: T3, rat PrRP receptor in RC-4B/C cells; test: competition with 125I-rat PrRP31 on RC-4B/C cells; Ki by Cheng-Prusoff
Procedure: The rat pituitary cell line RC-4B/C (ATCC, Manassas, USA) was grown on 24-well plates which had their bottom coated with polyethyleneimine. The cells were grown to the optimal density of 300-450 thousand per well.
as §1

[4] = target: T3, rat PrRP receptor in RC-4B/C cells; test: competition with 125I-rat PrRP31 on RC-4B/C cells
[5] = target: T3, rat PrRP receptor in RC-4B/C cells; test: competition with 125I-human PrRP31 on RC-4B/C cells; Ki by Cheng-Prusoff

| Molecule | Ki [1] [nM] | Ki [2] [nM] | Ki [3] [nM] | Ki [4] [nM] | Ki [5] [nM] | Food intake in mice (5 mg/kg SC) % saline-treated group (45 min) (fasted C57BL/6 mice) [%] |
| --- | --- | --- | --- | --- | --- | --- |
| CCCC[C@H](NC(=O)[C@H](CO)NC(=O)[C@H](Cc1c[nH]cn1)NC(=O)[C@H](CCC(N)=O)NC(=O)[C@H](Cc1c[nH]cn1)NC(=O)[C@H](C)NC(=O)[C@H](CCCNC(=N)N)NC(=O)[C@@H](N)CO)C(=O)N[C@@H](CCC(=O)O)C(=O)N[C@H](C(=O)N[C@@H](CCCNC(=N)N)C(=O)N[C@H](C(=O)N1CCC[C@H]1C(=O)N[C@@H](CC(=O)O)C(=O)N[C@H](C(=O)N[C@@H](CC(N)=O)C(=O)N1CCC[C@H]1C(=O)N[C@@H](C)C(=O)N[C@@H](Cc1c[nH]c2ccccc12)C(=O)N[C@@H](Cc1ccc(O)cc1)C(=O)N[C@H](C(=O)NCC(=O)N[C@@H](CCCNC(=N)N)C(=O)NCC(=O)N[C@H](C(=O)N[C@@H](CCCNC(=N)N)C(=O)N1CCC[C@H]1C(=O)N[C@H](C(=O)NCC(=O)N[C@@H](CCCNC(=N)N)C(=O)N[C@@H](Cc1ccccc1)C(N)=O)C(C)C)[C@@H](C)CC)[C@@H](C)O)[C@@H](C)CC)[C@@H](C)O)[C@@H](C)O [Analog 14] (H-SRAHQHS[Nle]ETRTPDINPAWYTGRGIRPVGRF-NH2) | 1.92 ± 0.43 | – | – | – | – | 100 |
| CCCCCCCCCCCCCCCC(=O)N[C@@H](CO)C(=O)N[C@@H](CCCNC(=N)N)C(=O)N[C@@H](C)C(=O)N[C@@H](Cc1c[nH]cn1)C(=O)N[C@@H](CCC(N)=O)C(=O)N[C@@H](Cc1c[nH]cn1)C(=O)N[C@@H](CO)C(=O)N[C@@H](CCCC)C(=O)N[C@@H](CCC(=O)O)C(=O)N[C@H](C(=O)N[C@@H](CCCNC(=N)N)C(=O)N[C@H](C(=O)N1CCC[C@H]1C(=O)N[C@@H](CC(=O)O)C(=O)N[C@H](C(=O)N[C@@H](CC(N)=O)C(=O)N1CCC[C@H]1C(=O)N[C@@H](C)C(=O)N[C@@H](Cc1c[nH]c2ccccc12)C(=O)N[C@@H](Cc1ccc(O)cc1)C(=O)N[C@H](C(=O)NCC(=O)N[C@@H](CCCNC(=N)N)C(=O)NCC(=O)N[C@H](C(=O)N[C@@H](CCCNC(=N)N)C(=O)N1CCC[C@H]1C(=O)N[C@H](C(=O)NCC(=O)N[C@@H](CCCNC(=N)N)C(=O)N[C@@H](Cc1c(F)c(F)c(F)c(F)c1F)C(N)=O)C(C)C)[C@@H](C)CC)[C@@H](C)O)[C@@H](C)CC)[C@@H](C)O)[C@@H](C)O [Analog 33] (Palmitoyl-SRAHQHS[Nle]ETRTPDINPAWYTGRGIRPVGR[Phe(F5)]-NH2) | 1.92 ± 0.53 | 0.51 ± 0.08 | – | – | – | 41 |
| CCCCCCCCCC(=O)N[C@H](C(=O)N1CCC[C@H]1C(=O)N[C@@H](CC(=O)O)C(=O)N[C@H](C(=O)N[C@@H](CC(N)=O)C(=O)N1CCC[C@H]1C(=O)N[C@@H](C)C(=O)N[C@@H](Cc1c[nH]c2ccccc12)C(=O)N[C@@H](Cc1ccc(O)cc1)C(=O)N[C@@H](C)C(=O)N[C@@H](CO)C(=O)N[C@@H](CCCNC(=N)N)C(=O)NCC(=O)N[C@H](C(=O)N[C@@H](CCCNC(=N)N)C(=O)N1CCC[C@H]1C(=O)N[C@H](C(=O)NCC(=O)N[C@@H](CCCNC(=N)N)C(=O)N[C@@H](Cc1ccccc1)C(N)=O)C(C)C)[C@@H](C)CC)[C@@H](C)CC)[C@@H](C)O [Analog 53] (Decanoyl-TPDINPAWYASRGIRPVGRF-NH2) | 2.41 ± 0.26 | – | – | – | – | 100 |
| CCCCCCCCCCCC(=O)N[C@H](C(=O)N1CCC[C@H]1C(=O)N[C@@H](CC(=O)O)C(=O)N[C@H](C(=O)N[C@@H](CC(N)=O)C(=O)N1CCC[C@H]1C(=O)N[C@@H](C)C(=O)N[C@@H](Cc1c[nH]c2ccccc12)C(=O)N[C@@H](Cc1ccc(O)cc1)C(=O)N[C@@H](C)C(=O)N[C@@H](CO)C(=O)N[C@@H](CCCNC(=N)N)C(=O)NCC(=O)N[C@H](C(=O)N[C@@H](CCCNC(=N)N)C(=O)N1CCC[C@H]1C(=O)N[C@H](C(=O)NCC(=O)N[C@@H](CCCNC(=N)N)C(=O)N[C@@H](Cc1ccccc1)C(N)=O)C(C)C)[C@@H](C)CC)[C@@H](C)CC)[C@@H](C)O [Analog 54] (Lauroyl-TPDINPAWYASRGIRPVGRF-NH2) | 2.41 ± 0.26 | – | – | – | – | 85 |

More lines, main results first:

| Ki [1] [nM] | Ki [2] [nM] | Ki [3] [nM] | Ki [4] [nM] | Ki [5] [nM] | Molecule | Food intake in mice (5 mg/kg SC) % saline-treated group (45 min) (fasted C57BL/6 mice) [%] |
| --- | --- | --- | --- | --- | --- | --- |
| – | – | 4.13 | – | – | [Dap](Myristoyl)RTHRHS[Nle]EIRTPDINPAWYASRGIRPVGRF-NH2 (N-terminus assumed; SMILES CCCCCCCCCCCCCC(=O)NC[C@H](N)C(=O)N[C@@H](CCCNC(=N)N)C(=O)N[C@H](C(=O)N[C@@H](Cc1c[nH]cn1)C(=O)N[C@@H](CCCNC(=N)N)C(=O)N[C@@H](Cc1c[nH]cn1)C(=O)N[C@@H](CO)C(=O)N[C@@H](CCCC)C(=O)N[C@@H](CCC(=O)O)C(=O)N[C@H](C(=O)N[C@@H](CCCNC(=N)N)C(=O)N[C@H](C(=O)N1CCC[C@H]1C(=O)N[C@@H](CC(=O)O)C(=O)N[C@H](C(=O)N[C@@H](CC(N)=O)C(=O)N1CCC[C@H]1C(=O)N[C@@H](C)C(=O)N[C@@H](Cc1c[nH]c2ccccc12)C(=O)N[C@@H](Cc1ccc(O)cc1)C(=O)N[C@@H](C)C(=O)N[C@@H](CO)C(=O)N[C@@H](CCCNC(=N)N)C(=O)NCC(=O)N[C@H](C(=O)N[C@@H](CCCNC(=N)N)C(=O)N1CCC[C@H]1C(=O)N[C@H](C(=O)NCC(=O)N[C@@H](CCCNC(=N)N)C(=O)N[C@@H](Cc1ccccc1)C(N)=O)C(C)C)[C@@H](C)CC)[C@@H](C)CC)[C@@H](C)O)[C@@H](C)CC)[C@@H](C)O, analog of human PrRP31) [analog no. 12] | – |
| – | – | 1.54 | 1.78 | 3.01 | SRTHRHSMEIRTPDINPAWYASRGIRPVGRF-NH2 (also called hPrRP31; analog no; 50) [Human PrRP31] | – |
| – | – | 2.28 | – | 2 | [Dap]RTHRHS[Nle]EIRTPDINPAWYASRGIRPVGRF-NH2 (N-terminus assumed; SMILES CCCC[C@H](NC(=O)[C@H](CO)NC(=O)[C@H](Cc1c[nH]cn1)NC(=O)[C@H](CCCNC(=N)N)NC(=O)[C@H](Cc1c[nH]cn1)NC(=O)[C@@H](NC(=O)[C@H](CCCNC(=N)N)NC(=O)[C@@H](N)CN)[C@@H](C)O)C(=O)N[C@@H](CCC(=O)O)C(=O)N[C@H](C(=O)N[C@@H](CCCNC(=N)N)C(=O)N[C@H](C(=O)N1CCC[C@H]1C(=O)N[C@@H](CC(=O)O)C(=O)N[C@H](C(=O)N[C@@H](CC(N)=O)C(=O)N1CCC[C@H]1C(=O)N[C@@H](C)C(=O)N[C@@H](Cc1c[nH]c2ccccc12)C(=O)N[C@@H](Cc1ccc(O)cc1)C(=O)N[C@@H](C)C(=O)N[C@@H](CO)C(=O)N[C@@H](CCCNC(=N)N)C(=O)NCC(=O)N[C@H](C(=O)N[C@@H](CCCNC(=N)N)C(=O)N1CCC[C@H]1C(=O)N[C@H](C(=O)NCC(=O)N[C@@H](CCCNC(=N)N)C(=O)N[C@@H](Cc1ccccc1)C(N)=O)C(C)C)[C@@H](C)CC)[C@@H](C)CC)[C@@H](C)O)[C@@H](C)CC, analog of human PrRP31) [analog no. 11] | – |
